According to patent US8372654B2, “Method for investigating the fate of a test compound or the stateof a biological system by means of NMR of hyperpolarised NMR active nuclei” (GE Healthcare Limited, priority 2001, dated 2013):

Columns and labels:
[1] = benzoic acid metabolism study: iv administration to anaesthetised rats, urine collected; assay type: in vivo, rat
[2] = rat, in vivo, iv, 20 mg/kg
Protocol: (U-^13C)Paracetamol was administered intravenously at 20 mg/kg (at 0 and 3 hrs) to 4 anaesthetised rats, urine was collected from canulated urethra and bile was collected from canulated bile duct (2 rats only) at 0-3 and 3-6 hours. Bile (3-6 hrs) was extracted with dichloromethane and then fractionated by RP-hplc (C18 Kromasil, 25×1 cm, 5 um) using gradient elution with formic acid in water and formic acid in methanol).
Several metabolites were collected. […] The isolated material was then dried and an aliquot re-analysed by RP hplc indicating a peak purity of 96.7%, monitored by on-line UV detection (at 254 nm) and gave the expected (M+H)+ ion at 240 mass units by on-line electrospray ionisation mass spectrometry (EI-MS).

O=[13C](O)c1ccccc1 [(^13C-carboxyl) Benzoic acid]
major metabolite in urine ([1]; rat urine after iv 10 mg/Kg at 0 and 2 hrs, isolated by SPE and RP-hplc): (^13C-carboxy) hippuric acid

(U-^13C)Paracetamol
metabolite identified in bile [2]: Paracetamol sulphate

(^13C-carboxyl) hippuric acid
level measured in urine ([1]; rat urine, 0-2 hr collection, after iv (13C-carboxyl) benzoic acid 10 mg/Kg): approximately 5 mg/ml
